Results published in patent US12209092B2, “Inhibitors of GLI1 as therapeutic agents” (NEW YORK UNIVERSITY, priority 2018, dated 2025).
Like-named read-outs stand apart in the source and are kept apart here.

Tested on: Gli1-mediated transcription
Assay: Gli1-mediated transcriptional luciferase reporter assay
Assay type: cell-based
Conditions: Shh-LIGHT2 cells, antagonist mode, purmorphamine 1.5 μM stimulation, 24 h
Procedure: Gli1-mediated transcriptional luciferase reporter assay was performed using Shh-LIGHT2 cells in order to evaluate the effects on activation and inhibition of Gli1-mediated transcription by the compounds of the disclosure. Brief assay procedure is provided below. […] Shh-LIGHT2 cells were harvested from about 80% confluent 10-cm dish using 0.25% Trypsin-EDTA solution. Medium was removed, and cells were washed with 5 mL DPBS and aspirated. Then, 1 mL 0.25% Trypsin-EDTA solution was added to a 10-cm dish. The dish was placed in the incubator for 1-3 minutes, or until cells have detached. 3 mL of cell growth medium (DMEM, 10% FBS, 1% PenStrep, 1% sodium pyruvate, and 1% GlutaMax) was added to the 10-cm dish, and the contents were transferred to a conical tube. […] The cell assay plate was removed from incubator after cells reached confluency. The culture medium was then manually removed from the cell plates, and the plates were centrifuged at 200 rpm for 30 seconds. […] After 30 min incubation of antagonist, cells were stimulated with agonist (purmorphamine, 5 μL, 1.5 μM final), then incubate for 24 h at 37° C./5% CO2. […] Luciferase assay: After incubation, the cell assay plate was allowed to acclimate to room temperature. Then, 20 μL of Duo-Glo® Luciferase Reagent (Promega) was added to each well of cell assay plate. The plate was briefly spun down, mixed, and incubated for 30 minutes at room temperature. The cell plate was read using luminometer for firefly luminescence activity. Then, 20 μL of Duo-Glo® Step&Glo® Reagent (Promega) was added to each well of cell assay plate. The plate was briefly spun down, mixed, and incubated for 30 minutes at room temperature. The cell plate was read using luminometer for Renilla luminescence activity. Ratio of firefly: Renilla luminescence was calculated for each well. The compound well ratio was normalized to the ratio from a control well.

[1] = firefly luminescence, read-out: Gli1 IC50 firefly
[2] = ratio of firefly:Renilla luminescence, read-out: Gli1 IC50 firefly:Renilla ratio

Cn1c(-c2ccc(C3CC3)cc2Cl)nc2c1CN(C1CCc3ccc(Cl)cc3C1)CC2 (stereo not drawn) [Example 163, 5-(7-chloro-1,2,3,4-tetrahydronaphthalen-2-yl)-2-(2-chloro-4-cyclopropylphenyl)-3-methyl-4,5,6,7-tetrahydro-3H-imidazo[4,5-c]pyridine]
IC50 [1]: < 0.1 µM
IC50 [2]: < 0.1 µM

Cn1c(-c2ccccc2Cl)nc2c1CCC(N1CCc3cccc(Cl)c3C1)C2 (stereo not drawn) [Example 188, 8-chloro-2-(2-(2-chlorophenyl)-1-methyl-4,5,6,7-tetrahydro-1H-benzo[d]imidazol-5-yl)-1,2,3,4-tetrahydroisoquinoline]
IC50 [1]: < 0.1 µM
IC50 [2]: < 0.1 µM

COc1ccc(Cl)c(-c2nc3c([nH]2)CN(C2CCc4ccc(Cl)cc4C2)CC3)c1 (stereo not drawn) [Example 24, 5-(7-chloro-1,2,3,4-tetrahydronaphthalen-2-yl)-2-(2-chloro-5-methoxyphenyl)-4,5,6,7-tetrahydro-3H-imidazo[4,5-c]pyridine]
IC50 [1]: 0.1 to 0.49 µM
IC50 [2]: < 0.1 µM

COc1cccc2c1CC(N1CCc3nc(-c4ccccc4Cl)n(CCO)c3C1)CC2 (stereo not drawn) [Example 130, 2-(2-(2-chlorophenyl)-5-(8-methoxy-1,2,3,4-tetrahydronaphthalen-2-yl)-4,5,6,7-tetrahydro-3H-imidazo[4,5-c]pyridin-3-yl)ethan-1-ol]
IC50 [1]: 1 to 50 µM
IC50 [2]: 1 to 50 µM

Clc1ccc2c(c1)CC(N1CCc3nc(-c4ccccc4Cl)[nH]c3C1)CO2 (stereo not drawn) [Example 3, 5-(6-chlorochroman-3-yl)-2-(2-chlorophenyl)-4,5,6,7-tetrahydro-3H-imidazo[4,5-c]pyridine]
IC50 [1]: 0.5 to 0.99 µM
IC50 [2]: 0.5 to 0.99 µM

Clc1ccc2c(c1)CC(N1CCc3nc(-c4cc(Br)ccc4Cl)[nH]c3C1)CC2 (stereo not drawn) [Example 30, 2-(5-bromo-2-chlorophenyl)-5-(7-chloro-1,2,3,4-tetrahydronaphthalen-2-yl)-4,5,6,7-tetrahydro-3H-imidazo[4,5-c]pyridine]
IC50 [1]: 1 to 50 µM
IC50 [2]: 0.5 to 0.99 µM

Clc1ccc2c(c1)CC(N1CCc3nc(-c4cccc(Cl)c4Cl)[nH]c3C1)CC2 (stereo not drawn) [Example 21, 5-(7-chloro-1,2,3,4-tetrahydronaphthalen-2-yl)-2-(2,3-dichlorophenyl)-4,5,6,7-tetrahydro-3H-imidazo[4,5-c]pyridine]
IC50 [1]: 0.5 to 0.99 µM
IC50 [2]: 0.5 to 0.99 µM

O[C@H]1c2cc(Cl)ccc2C[C@@H]1N1CCc2nc(-c3ccccc3Cl)[nH]c2C1 (relative stereo) [Example 99, trans-6-chloro-2-(2-(2-chlorophenyl)-3,4,6,7-tetrahydro-5H-imidazo[4,5-c]pyridin-5-yl)-2,3-dihydro-1H-inden-1-ol]
IC50 [1]: 1 to 50 µM
IC50 [2]: 1 to 50 µM

Clc1ccccc1-c1nc2c([nH]1)CN(C1CCc3ccc(Br)cc3C1)CC2 (stereo not drawn) [Example 27, 5-(7-bromo-1,2,3,4-tetrahydronaphthalen-2-yl)-2-(2-chlorophenyl)-4,5,6,7-tetrahydro-3H-imidazo[4,5-c]pyridine]
IC50 [1]: 0.1 to 0.49 µM
IC50 [2]: < 0.1 µM

Clc1ccccc1-c1nc2c([nH]1)CN(C1CCc3cccc(Cl)c31)CC2 (stereo not drawn) [Example 106, 5-(7-chloro-2,3-dihydro-1H-inden-1-yl)-2-(2-chlorophenyl)-4,5,6,7-tetrahydro-3H-imidazo[4,5-c]pyridine]
IC50 [1]: 1 to 50 µM
IC50 [2]: 1 to 50 µM

Clc1ccc2c(c1)CC(N1CCc3nc(-c4ccccc4Cl)[nH]c3C1)CC2 (stereo not drawn) [Example 13, 5-(7-chloro-1,2,3,4-tetrahydronaphthalen-2-yl)-2-(2-chlorophenyl)-4,5,6,7-tetrahydro-3H-imidazo[4,5-c]pyridine]
IC50 [1]: 0.1 to 0.49 µM
IC50 [2]: 0.1 to 0.49 µM

Fc1ccccc1-c1nc2c([nH]1)CN(C1CCc3cc(Cl)ccc3C1)CC2 (stereo not drawn) [Example 70, 5-(6-chloro-1,2,3,4-tetrahydronaphthalen-2-yl)-2-(2-fluorophenyl)-4,5,6,7-tetrahydro-3H-imidazo[4,5-c]pyridine]
IC50 [1]: 1 to 50 µM
IC50 [2]: 1 to 50 µM
